In patent publication US20070014739A1, “Compositions and methods for controlling biofilms and bacterial infections” (priority 2005, published 2007):
“And” between values parts separate entries of the source, which are not always exact repeats. Equal entries are not always repeated.

Assays:
[1] = system: Pseudomonas aeruginosa PA01; experiment: Inhibition of biofilm formation and growth, 96-well plates, crystal violet; format: cell-based; settings: for inhibited biofilm formation of P. aeruginosa PAO1: approximately 10 ug/ml, compared to the controls; for inhibitory effect on the growth of P. aeruginosa PA01: compared to controls
Experimental: An overnight culture of P. aeruginosa PA01 in LB+1% citrate was prepared. It was incubated at 37° C. shaker for 24 hours. A 1:20 dilution of the overnight culture was prepared. Test compounds are diluted appropriately with a volume of ethanol followed by shaking for approximately 5 minutes and then diluted with an appropriate volume of water.
Replicate 96-well plates are prepared, preferably two to four replicates, with appropriately diluted overnight culture and test compound in each well. Preferably, test compounds are prepared at 10 to 30 micrograms per milliliter. On each 96-well plate controls are appropriately prepared with at least one set of controls consisting of overnight culture and ethanol/water diluent and another set of controls consisting of growth media and ethanol/water diluent. Plates are covered with foil at room temperature and shaken for approximately 24 hours.
After shaking absorbance of the wells of the plates are determined, preferably at 630 nanometers. Liquid is than aspirated out of the wells and each well is filled with diluted crystal violet, preferably approximately 250 microliters of a 1:4 dilution, and allowed to stand for approximately 10 minutes. Each well of the plate is washed, preferably four times, with PBS with approximately one minute between each wash. After the final wash is aspirated out, the plate may be turned over onto paper towels to dump out excess PBS. 95% ethanol is added to each well, preferably 250 microliters. Absorbance of each well of a plate is determined, preferably at 540 nm. Preferably slight shaking is performed during the absorbance reading for approximately 5 minutes. Each well of the plate is than diluted […] with ethanol in a separate plate, preferably 145 ul of 95% ethanol and 5 uL from the original plate, and absorbance is determined. Preferably, slight shaking for approximately 3 minutes is performed.
Biofilm inhibition in each well is determined by subtracting the absorbance of the wells with test compounds from wells with controls containing overnight culture subtracting out controls with only media. A typical positive result of biofilm inhibition confirmed with replicates would be 30 percent to 80 percent less biofilm in the wells with test compound compared to the wells with controls of overnight culture.

[2] = system: P. aeruginosa strain PAO1; experiment: Rotating disk reactor (RDR) biofilm test with and without tobramycin, culturable bacteria; format: cell-based, Pseudomonas aeruginosa
Experimental: Biofilm formation of P. aeruginosa was evaluated using a standardized biofilm method with a rotating disk reactor (RDR). This method provides a model resembling the formation of biofilms in cystic fibrosis patients. The rotating disk reactor consists of a one-liter glass beaker fitted with a drain spout. The bottom of the vessel contains a magnetically driven rotor with six 1.27 cm diameter coupons constructed from polystyrene. The rotor consists of a star-head magnetic stir bar upon which a disk was affixed to hold the coupons. The vessel with the stir bar was placed on a stir plate and rotated to provide fluid shear. A nutrient solution (AB Trace Medium with 0.3 mM glucose, see Table 3 below for composition) was added through a stopper in the top of the reactor at a flow rate of 5 ml/min. The reactor volume was approximately 180 ml and varied slightly between reactors depending on the placement of the drain spout and the rotational speed of the rotor. At a volume of 180 ml, the residence time of the reactors was 36 minutes. The reactors were operated at room temperature (c.a. 26° C.).
For each test, two RDRs were operated in parallel with one receiving test compound and the other serving as an untreated control. The RDRs were sterilized by autoclave, then filled with sterile medium and inoculated with P. aeruginosa strain PAO1. The reactors were then incubated at room temperature in batch mode (no medium flow) for a period of 24 hours, after which the flow was initiated for a further 24 hour incubation. Test compounds were dissolved in 10 ml ethanol to achieve a concentration of 1.8 mg/ml. After the 48 hours of biofilm development described above, the 10 ml of ethanol containing the test compounds were added to the reactor to achieve a final concentration of approximately 50, 100, or 200 μg/ml. Control reactors received 10 ml of ethanol. The reactors were then incubated for an additional 24 hours in batch (no flow) mode. After this incubation period, the six coupons were removed from each reactor and placed in 12-well polystyrene tissue culture plates with wells containing either 2 ml of a 100 μg/ml tobramycin solution or 2 ml of phosphate-buffered saline (PBS). These plates were incubated at room temperature for two hours. The coupons were then rinsed by three transfers to plates containing 2 ml of fresh PBS. For each two RDR reactors run in parallel, four sets of three coupons were obtained: one set with no test compound treatment and no tobramycin treatment, one set with no test compound treatment and tobramycin treatment, one set treated with a test compound treatment and no tobramycin treatment, and one set treated with a test compound treatment and tobramycin. After rinsing, one coupon of each set of three was stained with a LIVE/DEAD® BacLight™ Bacterial Viability Kit (Molecular Probes, Eugene Oreg.) and imaged using epifluorescent microscopy. The remaining two coupons were placed in 10 ml of PBS and sonicated for five minutes to remove and disperse biofilm cells. The resulting bacterial suspensions were then serially diluted in PBS and plated on tryptic soy agar plates for enumeration of culturable bacteria. The plates were incubated for 24 hours at 37° C. before colony forming units (CFU) were determined.
The results are averages from experiments performed on three separate days for each test compound. The values reported are as loglo CFU.

E. coli UT189[pCOMGFP] = experiment: Biofilm pods (IBCs) in bladders of infected mice, intravesical compound, confocal microscopy; format: in vivo, Escherichia coli; settings: vs controls
Experimental: The procedures in this example has been previously reported by Justice, S. et al. Differentiation and development pathways of uropathogenic Escherichia coli in urinary tract pathogenesis. PNAS, 2004, 101(5), p. 1333-1338. Briefly, E. coli UT189[pCOMGFP] was prepared after retrieval from frozen stocks by inoculating appropriately in LB medium statically for approximately 20 hours. Cells were harvested and suspended in 1 ml of PBS. Cells were diluted appropriately to achieve approximately a 10^8 CFU or 10^7 CFU input into C3H/HeN mice (2 mice per group).
Mice were deprived of water for approximately two hours. In experiment 1, all mice were anesthetized with 0.15 cc ketamine cocktail. In experiment 2, all mice were anesthetized with isofluorane. In experiment 1, urine was dispelled from the bladders and approximately 40 μg/ml of test compound or an appropriate amount of ethanol as control was introduced into the bladders via catheterization of the urethra using a tubing coated tuberculin syringe. 30 minutes was allowed to elapse. In experiment 2, bladders were not pre-incubated with test compounds. Bladders were then expelled and an inoculum of 10^8 CFU (Experiment 1) or 10^7 CFU (Experiment 2) of E. coli containing 40 μg/ml of test compound or equivalent amount of ethanol as controls were introduced into the bladders as indicated above.
In experiment 1 five hours elapsed and in experiment 2 six hours elapsed, and then mice were anesthetized and sacrificed appropriately. The bladders were removed, bisected, stretched, and fixed in 3% paraformaldehyde for 1 hour at room temperature. Bladders were then permeabilized in 0.01% Triton/PBS for 10 minutes and counter stained with TOPRO3 (Molecular Probes) for 10 minutes for visualization by confocal microscopy. Bladders were mounted on Prolong antifade (Molecular Probes).

[3] = system: E. coli clinical strain UT189; experiment: Inhibition of biofilm formation, crystal violet, 96 well plates; format: cell-based; settings: Escherichia coli; 20 ug/ml; read-out: inhibited biofilm formation of the UT189 strain
Experimental: Biofilm inhibition experiments were conducted using an assay adapted from the reported protocol described in Pratt and Kolter, 1998, Molecular Microbiology, 30: 285-293; Li et al., 2001, J. Bacteriol., 183: 897-908. E. coli clinical strain UT189 was grown in LB in 96 well plates at room temperature for one or two days without shaking. E. coli laboratory strain JM109 was grown in LB plus 0.2% glucose in 96 well plates at room temperature for one day without shaking. To quantify the biofilm mass, the suspension culture was poured out and the biofilm was washed three times with water. The biofilm was stained with 0.1% crystal violet for 20 minutes. The plates were then washed three times with water. OD reading at 540 nm was measured to quantify the biofilm mass at the bottom of the wells. Then 95% ethanol was added to dissolve the dye at the bottom and on the wall and the OD reading at 540 nm was measured to quantify the total biofilm mass. To study the overall effect of the compounds (3.6 mg/mL in 100% ethanol as stock solution), it was added with the inoculation and a time course of biofilm mass was measured. Appropriate amounts of 100% ethanol were added to each sample to eliminate the effect of solvent. Each condition had 3-4 replicates on each plate and was performed over multiple days.

[4] = system: E. coli clinical strain UT189 against bladder epithelial cells; experiment: Binding to and invasion of bladder epithelial cells by E. coli; format: cell-based
Experimental: The effect of test compounds on bacterial invasion of E. coli clinical strain UT189 was studied as described in Elsinghorst, et al. 1994, Methods Enzymol, 236:405-420; and Martinez et al., 2000, EMBO J., 19:2803-2812. Epithelial bladder cells were grown in plates. Asiatic acid, corosolic acid, or ursolic acid were added at concentrations of 10 μg/ml, 20 μg/ml, or 40 μg/ml to bacteria and epithelial cells for approximately 5, 15, 30, or 60 minutes with approximately 10^7 CFU of E. coli. Binding was assessed at time zero and invasion was assessed at approximately 5, 15, 30, or 60 minutes from completing the mixture of compound, bacteria, and epithelial cells. As a control ethanol was added to cells to a final concentration of 0.1%. The effect of bacterial viability and bacterial adherence during the infection period was evaluated according to the methods described in Martinez et al., 2000, EMBO J., 19:2803-2812.

[5] = system: methicillin-resistant Staphylococcus aureus; settings: cited from earlier work

## 3-hydroxy-12,20(30) ursadienoic acid [3-hydroxy-12, 20(30) ursadienoic acid]
[1]
  inhibited biofilm formation of P. aeruginosa PAO1: about 40%
  inhibitory effect on the growth of P. aeruginosa PA01: no inhibitory effect

## CC(=O)OC1CCC2(C)C(CCC3(C)C2CC=C2[C@@H]4CC(C)(C)CCC4(C(=O)O)CCC23C)C1(C)C (some centres unmarked) [3-acetyl oleanolic acid]
[1]
  inhibited biofilm formation of P. aeruginosa PAO1: ~50%
  inhibitory effect on the growth of P. aeruginosa PA01: no inhibitory effect

## C[C@@H]1CC[C@]2(C(=O)O)CCC3(C)C(=CCC4C5(C)C[C@@H](O)[C@H](O)C(C)(C)C5CCC43C)C2[C@H]1C (some centres unmarked) [Corosolic acid]
[2]; test compound 100 μg/ml 24 h, no tobramycin, average of three days
  CFU, Test Compound: 7.8 loglo CFU
[2]; test compound 100 μg/ml 24 h, then tobramycin 100 μg/ml 2 h, average of three days
  CFU, Tobramycin and Test Compound: 5.3 loglo CFU
E. coli UT189[pCOMGFP]; experiment 1: C3H/HeN mice, 40 μg/ml intravesical with 30 min pre-incubation, 10^8 CFU, five hours
  reduction in biofilm pods or IBCs in the bladders of mice: 94%
E. coli UT189[pCOMGFP]; experiment 2: C3H/HeN mice, 40 μg/ml in inoculum, no pre-incubation, 10^7 CFU, six hours
  reduction in large biofilm pods or large IBCs in the bladders of mice: ~60%
[3]
  inhibition at 20 µg/mL: ~85%
[4]; 20 μg/ml, 60 minutes, n=4
  reduced invasion of E. coli into bladder epithelial cells: 65%
[4]; 40 µg/ml, 5 minutes, triplicate, compared to the controls
  reduced invasion of E. coli into bladder epithelial cells: 10%
[4]; 40 µg/ml, 15 minutes, triplicate, compared to the controls
  reduced invasion of E. coli into bladder epithelial cells: 70%
[4]; 40 μg/ml, 60 minutes, separate experiments (n=4 to 7)
  reduced invasion of E. coli into bladder epithelial cells: 90%
[4]; 40 µg/ml, 60 minutes, triplicate, compared to the controls
  reduced invasion of E. coli into bladder epithelial cells: 90%

## C[C@@H]1CC[C@]2(C(=O)O)CC[C@]3(C)C(=CCC4[C@@]5(C)C[C@@H](O)[C@@H](O)C(C)(C)C5CC[C@]43C)C2[C@H]1C (some centres unmarked) [Pygenic acid A, Pygenic Acid A]
[1]
  inhibited biofilm formation of P. aeruginosa PAO1: about 40%
  inhibitory effect on the growth of P. aeruginosa PA01: no inhibitory effect

## C=C1CCC2(C(=O)O)CCC3(C)C(=CCC4C5(C)CCC(O)C(C)(C)C5CCC43C)C2C1C (centres unmarked) [Pygenic acid B, Pygenic Acid B]
[1]
  inhibited biofilm formation of P. aeruginosa PAO1: ~30%
  inhibitory effect on the growth of P. aeruginosa PA01: no inhibitory effect

## NC[C@H]1O[C@H](O[C@H]2[C@H](O)[C@@H](O[C@H]3O[C@H](CO)[C@@H](O)[C@H](N)[C@H]3O)[C@H](N)C[C@@H]2N)[C@H](N)C[C@@H]1O [Tobramycin, reference compound]
[2]; tobramycin 100 μg/ml 2 h, no test compound, parallel reactor of the experiment
  CFU, Tobramycin: 5.8 loglo CFU and 6.5 loglo CFU and 6.1 loglo CFU and 6.7 loglo CFU and 6.2 loglo CFU

## CO[C@H]1/C=C/O[C@@]2(C)Oc3c(C)c(O)c4c(O)c(c(/C=N/N5CCN(C)CC5)c(O)c4c3C2=O)NC(=O)/C(C)=C\C=C\[C@H](C)[C@H](O)[C@@H](C)[C@@H](O)[C@@H](C)[C@H](OC(C)=O)[C@@H]1C [rifampin]
[5]; biofilm, urinary catheters
  eradication of methicillin-resistant Staphylococcus aureus in a biofilm: unable to eradicate
[5]; planktonic cells
  effect against planktonic, or suspended cells: effective

## Echinocystic Acid
[1]
  inhibited biofilm formation of P. aeruginosa PAO1: ~25%
  inhibitory effect on the growth of P. aeruginosa PA01: no inhibitory effect
